Laboratory results taken from patent publication US20240166630A1, “INDOLE DERIVATIVES AS SEROTONERGIC AGENTS USEFUL FOR THE TREATMENT OF DISORDERS RELATED THERETO” (Mindset Pharma Inc., priority 2021, published 2024).

Assays:
[1] = rapid first-pass metabolism by monoamine oxidase; cited from earlier work
[2] = Liver microsomes stability with NADPH, rat; details: for Remaining Percentage (%) after 60 min Rat: rat liver microsomes, with NADPH, 2 μM; for half-life at 2 μM / microsomal CLint at 2 μM: rat, microsomes
[3] = Liver microsomes stability with NADPH, mouse; details: for half-life at 2 μM / microsomal CLint at 2 μM: male, mouse, microsomes; for Remaining Percentage (%) after 60 min Mouse: mouse liver microsomes, with NADPH, 2 μM
Method: (§1) The objective of this study was to estimate in vitro metabolic stability of representative compounds of the application in pooled human and male mouse liver microsomes. The concentrations of parent compounds in reaction systems were evaluated by LC-MS/MS for estimating the stability in pooled human and male mouse liver microsomes. The in vitro intrinsic clearances of test compounds were determined as well.
(§2) A master solution in the “Incubation Plate” containing phosphate buffer, ultra-pure H2O, MgCl2 solution and liver microsomes was made according to Table 3. The mixture was pre-warmed at 37° C. water bath for 5 minutes.
(§3) 40 μL of 10 mM NADPH solution was added to each well. The final concentration of NADPH was 1 mM. The negative control samples were prepared by replacing NADPH with 40 μL of ultra-pure H2O. Samples were prepared in duplicate. Negative controls were prepared in singlet.
(§4) The reaction was started with the addition of 4 μL of 200 μM test compounds or control compounds to each master solution to get the final concentration of 2 μM. This study was performed in duplicate.
(§5) Aliquots of 50 μL were taken from the reaction solution at 0, 15, 30, 45 and 60 minutes. The reaction solutions were stopped by the addition of 4 volumes of cold methanol with IS (100 nM alprazolam, 200 nM imipramine, 200 nM labetalol and 2 μM ketoprofen). Samples were centrifuged at 3,220 g for 40 minutes. Aliquot of 90 μL of the supernatant was mixed with 90 μL of ultra-pure H2O and then was used for LC-MS/MS analysis.
(§6) LC/MS analysis was performed for all samples from this study using a Shimadzu liquid chromatograph separation system equipped with degasser DGU-20A5R; solvent delivery unit LC-30AD; system controller SIL-30AC; column oven CTO-30A; CTC Analytics HTC PAL System; Mass spectrometric analysis was performed using an Triple Quad™ 5500 instrument.
(§7) All calculations were carried out using Microsoft Excel. Peak area ratios of test compound to internal standard (listed in the below table) were determined from extracted ion chromatograms.
(§8) All calculations were carried out using Microsoft Excel. Peak areas were determined from extracted ion chromatograms. The slope value, k, was determined by linear regression of the natural logarithm of the remaining percentage of the parent drug vs. incubation time curve.
(§9) The in vitro half-life (in vitro t1/2) was determined from the slope value:
(§10) Conversion of the in vitro t1/2 (min) into the in vitro intrinsic clearance (in vitro CLint, in μL/min/mg proteins) was done using the following equation (mean of duplicate determinations): […]

[4] = Liver microsomes stability with NADPH, human; details: for Remaining Percentage (%) after 60 min Human: 2 μM; for half-life at 2 μM / microsomal CLint at 2 μM: human, microsomes
Method: as §1, §2, §3, §4, §5, §6, §7, §8, §9, §10

human 5-HT2A = human 5-HT2A (Homo sapiens, UniProt P28223); assay: Radioligand binding assay on human 5-HT2A receptor ([3H]-ketanserin)
Sequence of human 5-HT2A (P28223 whole entry): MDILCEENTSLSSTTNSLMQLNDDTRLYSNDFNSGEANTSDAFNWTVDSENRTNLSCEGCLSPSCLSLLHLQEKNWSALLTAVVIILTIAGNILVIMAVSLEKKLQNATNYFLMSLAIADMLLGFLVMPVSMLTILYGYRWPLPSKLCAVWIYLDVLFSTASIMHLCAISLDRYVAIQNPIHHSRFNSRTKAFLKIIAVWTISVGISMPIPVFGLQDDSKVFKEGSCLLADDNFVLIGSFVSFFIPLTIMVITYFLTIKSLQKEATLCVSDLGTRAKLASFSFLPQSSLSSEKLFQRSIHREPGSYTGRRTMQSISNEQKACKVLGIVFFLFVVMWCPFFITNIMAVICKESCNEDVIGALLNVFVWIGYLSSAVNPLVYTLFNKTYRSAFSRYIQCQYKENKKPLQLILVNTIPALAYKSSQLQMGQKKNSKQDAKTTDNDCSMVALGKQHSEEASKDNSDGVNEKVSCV
Method: i. The assay buffer was prepared following the table below;
iii. Prepared (v/v) DMSO as follows: a. […] The plates were sealed and incubated at 4° C. for 3 hrs;
iv. Preparation of assay plates: a.
vi. The plates were sealed and incubated at 27° C. for 90 min.

[5] = target: T1, human 5-HT2A (h5-HT2A) receptor (Homo sapiens, UniProt P28223); assay: FLIPR assay, human 5-HT2A receptor under agonist mode; type: cell-based
T1 construct: expressed in transfected cells; kept under G418 and hygromycin B selection
T1 sequence (P28223 whole entry): as above
Method: I. Assessment of the Activated Effect of Compounds of Formula I-B Targeting on Human 5-HT2A (h5-HT2A) Receptor Under Agonist Mode:
1. The cells were cultured in cell culture medium (DMEM containing 10% FBS, 1× penicillin-streptomycin 300 μg/ml G418 and 100 μg/ml hygromycin B) at 37° C., 5% (v/v) CO2.
2. One day before the assays, the cells were detached using TrypLE™ Express and count cells using cell counter.
3. 20000 cells/well were seeded in 30 μl/well culture medium to a 384-well cell plate and incubated the cells overnight at 37° C., 5% (v/v) CO2.
4. On the assay day, 2×dye solution was prepared following the manual of the FLIPR® Calcium 6 Assay Kit: i. The dye was diluted with assay buffer (20 mM HEPES in 1×HBSS, PH7.4); ii. probenecid was added to the final concentration of 5 mM; iii. Vortexed vigorously for 1-2 minutes.
5. Medium was removed from cell plate by flicking the cell plate on towel papers.
7. The cell plate was placed on plate shaker, the plate agitated at 600 rpm for 2 minutes. The plate was incubated at 37° C. for 2 hours followed by additional 15-minute incubation at 25° C.
8. 3×compound was prepared in assay buffer: a. Reference compounds were diluted to required concentration with DMSO. The compounds were added to a 384-well compound plate; b. Serial dilutions were performed; c. 10 mM test compounds were added to the compound plate, 3-fold serial dilutions were performed. […] 20 μl/well assay buffer was added to the compound plate; f.
9. The cell plate, compound plate and tips were placed into FLIPR, 10 μl of 3× compound was transferred to the cell plate per well with FLIPR.
i. The normalized fluorescence reading (RFU) was calculated as shown follow, while Fmax and Fmin stand for maximum and minimum of calcium signal during defined time window: RFU=Fmax−Fmin
ii. The percentage activation was calculated by using following equation: […]
iii. EC50 was calculated by fitting % activation against log of compound concentrations with Hill equation using Xlfit.

[6] = human liver microsomes, with NADPH

Row | Compound | oral activity [1] | Remaining Percentage (%) after 60 min Rat [2] [%] | half-life at 2 μM [2] [h] | microsomal CLint at 2 μM [2] [µL/min/mg] | half-life at 2 μM [3] [h] | microsomal CLint at 2 μM [3] [µL/min/mg] | Remaining Percentage (%) after 60 min Mouse [3] [%] | CLint (μL/min/mg protein) Human [4, 6] [μL/min/mg protein] | Half-Life t1/2 (min) Human [4, 6] | Remaining Percentage (%) after 60 min Human [4, 6] [%] | IC50 (human 5-HT2A) [nM] | EC50 [5] [nM] | half-life at 2 μM [4] [h] | microsomal CLint at 2 μM [4] [µL/min/mg]
1 | COc1ccc2[nH]cc(CCN(C)C)c2c1 [Compound 5-MeO-DMT, 5-methoxy-N,N-dimethyltryptamine, reference compound] | not orally active | 16.02 | 0.378 | 61 | 0.842 | 27.4 | 89.36 | 101.08 | 13.75 min | 4.82 |  |  |  | 
2 | [2H]C([2H])(c1c[nH]c2ccccc12)[C@H]1CCCN1C [I-B-2, (R)-3-((1-methylpyrrolidin-2-yl)methyl-d2)-1H-indole] |  | 0.81 | 0.144 | 46.3 | 1.02 | 47.1 | 50.81 |  |  | 64.96 | < 500 | < 100 | 1.61 | 9.64
3 | [2H]C([2H])(c1c[nH]c2ccccc12)[C@H]1CCCN1 [I-B-8, (R)-3-(pyrrolidin-2-ylmethyl-d2)-1H-indole] |  | 38.89 | 0.734 | 31.5 | 1.22 | 18.9 | 56.72 |  |  | 91.11 | 500 to 5000 | 100 to 1000 | 7.44 | 3.1
4 | [2H]C([2H])([2H])N1CCC[C@@H]1Cc1c[nH]c2ccc(OC)cc12 [I-B-9, (R)-5-methoxy-3-((1-(methyl-d3)pyrrolidin-2-yl)methyl)-1H-indole] |  |  |  |  |  |  |  |  |  |  | < 500 | < 100 |  | 
5 | [2H]C([2H])(c1c[nH]c2ccc(OC)cc12)[C@H]1CCCN1C [I-B-10, (R)-5-methoxy-3-((1-methylpyrrolidin-2-yl)methyl-d2)-1H-indole] |  | 35.87 | 0.676 | 29 | 1.51 | 38.4 | 63.17 |  |  | 78.24 | < 500 | < 100 | 2.82 | 6.86
6 | [2H]C([2H])([2H])Oc1ccc2[nH]cc(C[C@H]3CCCN3C([2H])([2H])[2H])c2c1 [I-B-11, (R)-5-(methoxy-d3)-3-((1-(methyl-d3)pyrrolidin-2-yl)methyl)-1H-indole] |  | 34.51 | 0.651 | 29.5 | 1.36 | 40.6 | 60.16 |  |  | 85.35 | < 500 | < 100 | 4.38 | 5.01
7 | [2H]C([2H])([2H])Oc1ccc2[nH]cc(C([2H])([2H])[C@H]3CCCN3C([2H])([2H])[2H])c2c1 [I-B-12, (R)-5-(methoxy-d3)-3-((1-(methyl-d3)pyrrolidin-2-yl)methyl-d2)-1H-indole] |  | 35.87 | 0.676 | 29 | 1.51 | 38.4 | 63.17 |  |  | 78.24 | < 500 | < 100 | 2.82 | 6.86
8 | [2H]C([2H])(c1c[nH]c2ccc(OC)cc12)[C@H]1CCCN1C([2H])([2H])[2H] [I-B-13, (R)-5-methoxy-3-((1-(methyl-d3)pyrrolidin-2-yl)methyl-d2)-1H-indole] |  |  |  |  |  |  |  |  |  |  | < 500 | < 100 |  | 
9 | [2H]C([2H])([2H])Oc1ccc2[nH]cc(C[C@H]3CCCN3)c2c1 [I-B-14, (R)-5-(methoxy-d3)-3-(pyrrolidin-2-ylmethyl)-1H-indole] |  | 92.44 | 8.82 | 4.33 | 8.15 | 10.9 | 91.85 |  | ∞ | 110.97 | < 500 | < 100 |  | 
10 | [2H]C([2H])([2H])Oc1ccc2[nH]cc(C([2H])([2H])[C@H]3CCCN3)c2c1 [I-B-15, (R)-5-(methoxy-d3)-3-(pyrrolidin-2-ylmethyl-d2)-1H-indole] |  |  |  |  |  |  |  |  |  |  | < 500 | < 100 |  | 
11 | [2H]C([2H])(c1c[nH]c2ccc(OC)cc12)[C@H]1CCCN1 [I-B-16, (R)-5-methoxy-3-(pyrrolidin-2-ylmethyl-d2)-1H-indole] |  | 34.51 | 0.651 | 29.5 | 1.36 | 40.6 | 60.16 |  |  | 85.35 | < 500 | < 100 | 4.38 | 5.01
